Results on 13 compounds are retold here after patent US5258492A, “LHRH analogues with cytotoxic moieties at the sixth position” (The Administrators of the Tulane Educational Fund, priority 1991, dated 1993).

The subject of test [1] is human breast carcinoma cells. Particulars: prior art; cited from earlier work.
For the next test, the system named is rat mammary carcinomas. Particulars: prior art; compared with ovariectomy; cited from earlier work.
The subject of test [2] is membrane receptors of human prostate cancer. The test can be described thus: Affinity to membrane receptors of human prostate cancer using 125I-labeled [D-Trp6]LHRH. Type of test: binding. How it is done: (§1) This is determined by using labelled LHRH and [D-Trp^6 ]LHRH. The assay is carried out similarly to that described by T. Kadar et al., Proc. Natl. Acad. Sci. USA, 85, 890-894 (1988).
(§2) *Affinity constants of the peptides for the first receptor class, Ka
(§3) (i.e. for high affinity binding sites) and for the second receptor class,
(§4) Ka2 (i.e. for low affinity binding sites) of human prostate cancer
(§5) and rat Dunning tumor, respectively, as determined by using ^125
(§6) Ilabeled [DTrp^6 ]LHRH.

In test [3] the test system is membrane receptors of rat Dunning tumor. The test can be described thus: Affinity to membrane receptors of rat Dunning tumor using 125I-labeled [D-Trp6]LHRH. In kind it is binding. The protocol:
as §1, §2, §3, §4, §5, §6

In test [4] the target is T1, membrane receptors of pituitary of male rats (Rattus norvegicus, UniProt P30969).
T1 construct: from tissue; host or cells: pituitary of male rats (membranes)
T1 sequence (P30969 1-327): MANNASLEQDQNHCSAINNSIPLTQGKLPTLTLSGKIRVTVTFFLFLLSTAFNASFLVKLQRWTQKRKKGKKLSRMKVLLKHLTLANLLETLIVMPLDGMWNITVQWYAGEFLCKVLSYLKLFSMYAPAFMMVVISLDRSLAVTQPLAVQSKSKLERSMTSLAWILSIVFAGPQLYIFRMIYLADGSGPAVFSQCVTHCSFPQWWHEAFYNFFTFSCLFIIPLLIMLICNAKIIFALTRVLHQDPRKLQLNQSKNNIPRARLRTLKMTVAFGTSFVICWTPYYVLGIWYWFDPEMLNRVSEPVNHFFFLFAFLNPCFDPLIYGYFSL
The experiment in a line: Binding affinity for membrane receptors of rat pituitary using 125I-labeled [D-Trp6]LHRH. Conditions: Table 2, high affinity binding sites. How it is done: as §1
(§7) Table 2 presents the antiovulatory activity of the claimed compounds having LHRH-inhibiting properties. The inhibitory action was determined in vivo, in 4-day cycling rats as described [A. Corbin and C. W. Beattie, Endocr. Res. Commun., 2, 1-23 (1975)]. Affinities of the claimed compounds to membrane receptors of rat pituitary and human breast cancer cells are also given in Tables 1 and 2 as determined by using [^125 I,D-Trp^6 ]LHRH.
(§8) **Affinity constants of the peptides for the first receptor class (i.e.
(§9) for high affinity binding sites) of pituitary of male rats and human
(§10) breast cancer cells, respectively, as determined by using ^125
as §6
(§11) breast cancer cells, respectively, were determined by using ^125

The target of test [5] is T2, membrane receptors of human breast cancer cells (Homo sapiens, UniProt P30968).
T2 construct: endogenous in cells; host or cells: human breast cancer cells (membranes)
T2 sequence (P30968 1-328): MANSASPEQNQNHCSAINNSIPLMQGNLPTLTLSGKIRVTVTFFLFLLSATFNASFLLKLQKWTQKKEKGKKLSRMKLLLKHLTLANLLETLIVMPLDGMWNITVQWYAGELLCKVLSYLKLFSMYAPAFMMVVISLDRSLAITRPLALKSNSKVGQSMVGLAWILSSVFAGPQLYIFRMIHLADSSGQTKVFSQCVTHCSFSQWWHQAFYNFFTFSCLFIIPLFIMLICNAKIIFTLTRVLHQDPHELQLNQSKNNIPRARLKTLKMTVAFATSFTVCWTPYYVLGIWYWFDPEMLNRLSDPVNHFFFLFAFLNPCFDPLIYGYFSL
The test can be described thus: Binding affinity for membrane receptors of human breast cancer cells using 125I-labeled [D-Trp6]LHRH. Conditions: Table 2, high affinity binding sites. How it is done:
as §1, §7, §8, §9, §10, §6, §11

The test system of the next test is 4-day cycling rats. The test can be described thus: In vivo antiovulatory activity in 4-day cycling rats. More on the design: species or system rat. How it is done:
This activity of the peptides is determined in 4-day-cycling rats as described [A. Corbin and C. W. Beattie, Endocr. Res. Commun., 2, 1-23 (1975)].
as §7
*LHRH-inhibiting potencies were assayed in 4day cyclic rats.

The next test has as its system LHRH. Particulars: prior art; cited from earlier work.
Where [6] appears, read: first receptor class (high affinity binding sites).
The mark [7] stands for this setting: second receptor class (low affinity binding sites).

As for `CCNC(=O)[C@@H]1CCCN1C(=O)[C@H](CCCNC(=N)N)NC(=O)[C@H](CC(C)C)NC(=O)[C@@H](COC(C)(C)C)NC(=O)[C@H](Cc1ccc(O)cc1)NC(=O)[C@H](CO)NC(=O)[C@H](Cc1c[nH]c2ccccc12)NC(=O)[C@H](Cc1cnc[nH]1)NC(=O)[C@@H]1CCC(=O)N1` [Example A3], the “growth of human breast carcinoma cells containing LHRH binding sites (in words)” value in test [1] is “inhibited”.
In the case of `CC(C)C[C@H](NC(=O)[C@@H](COC(C)(C)C)NC(=O)[C@H](Cc1ccc(O)cc1)NC(=O)[C@H](CO)NC(=O)[C@H](Cc1c[nH]c2ccccc12)NC(=O)[C@H](Cc1cnc[nH]1)NC(=O)[C@@H]1CCC(=O)N1)C(=O)N[C@@H](CCCNC(=N)N)C(=O)N1CCC[C@H]1C(=O)NNC(N)=O` [Example A4], in the test on rat mammary carcinomas, the “effectiveness in treatment of rat mammary carcinomas (in words)” value was “as effective as ovariectomy”.
For the compound `CC(C)C[C@H](NC(=O)[C@@H](Cc1c[nH]c2ccccc12)NC(=O)[C@H](Cc1ccc(O)cc1)NC(=O)[C@H](CO)NC(=O)[C@H](Cc1c[nH]c2ccccc12)NC(=O)[C@H](Cc1c[nH]cn1)NC(=O)[C@@H]1CCC(=O)N1)C(=O)N[C@@H](CCCNC(=N)N)C(=O)N1CCC[C@H]1C(=O)NCC(N)=O` [[D-Trp^6]-LHRH, [D-Trp^6]LHRH, reference compound], the “Human prostate cancer Ka1” value in test [2] (setting [6]) was found to be 0.04 nM⁻¹. For the same compound, in test [3] (setting [6]), the “Dunning tumor Ka1” value was found to be 1.87 nM⁻¹.
“Ac-D-Nal(2)-D-Phe(4Cl)-D-Pal(3)-Ser-Arg-D-Lys[(Cu^++)(POL)2 (DL-A2 pr)]-Leu-Arg-Pro-D-Ala-NH2 [XXIV]”: in test [4], the “Binding affinity, Ka1, for membrane receptors of pituitary” value (shortened to “Binding affinity, Ka1 … of pituitary”) is 5.483 nM⁻¹. Moreover, the “Binding affinity, Ka1, for membrane receptors of cancer cells” value (“Binding affinity, Ka1 … of cancer cells” below) in test [5] worked out at 2.628 nM⁻¹. Moreover, in the test on 4-day cycling rats (Dose 3 μg/rat), the “% Blockade of ovulation” value was 50%.
In the same order, the values of “Ac-D-Nal(2)-D-Phe(4Cl)-D-Pal(3)-Ser-Arg-D-Lys[(Cu^++)(POLP)2 (DL-A2 pr)]-Leu-Arg-Pro-D-Ala-NH2 [Example XX]” are 5.250 nM⁻¹, 2.436 nM⁻¹ and 80%.
In the case of “Ac-D-Nal(2)-D-Phe(4Cl)-D-Pal(3)-Ser-Arg-D-Lys[(Ni^++)(SAL)2 (DL-A2 pr)]-Leu-Arg-Pro-D-Ala-NH2 [XIII]”, in test [4], the “Binding affinity, Ka1 … of pituitary” value was 1.821 nM⁻¹. Besides, the “Binding affinity, Ka1 … of cancer cells” value in test [5] stood at 0.878 nM⁻¹. The “% Blockade of ovulation” value in the test on 4-day cycling rats (rat, in vivo) is reported as 100.
With “Ac-D-Nal(2)-D-Phe(4Cl)-D-Trp-Ser-Arg-D-Lys[(Cu^++)(POLP)2 (DL-A2 pr)]-Leu-Arg-Pro-D-Ala-NH2 [Example XXII]”, the “Binding affinity, Ka1 … of pituitary” value in test [4] came to 2.901 nM⁻¹. The “Binding affinity, Ka1 … of cancer cells” value in test [5] is 1.337 nM⁻¹. Further, in the test on 4-day cycling rats (Dose 10 μg/rat), the “% Blockade of ovulation” value is 60%.
For “Ac-D-Nal(2)-D-Phe(4Cl)-D-Trp-Ser-Arg-D-Lys[(Cu^++)(SAL)2 (DL-A2 pr)]-Leu-Arg-Pro-D-Ala-NH2 [XII]”, the “Binding affinity, Ka1 … of pituitary” value in test [4] turned out to be 9.183 nM⁻¹. The “Binding affinity, Ka1 … of cancer cells” value in test [5] came to 4.951 nM⁻¹. Further, the “% Blockade of ovulation” value in the test with 4-day cycling rats (Dose 3 μg/rat) is 20%.
Regarding “Ac-D-Nal(2)-D-Phe(4Cl)-D-Trp-Ser-Arg-D-Lys[(Ni^++)(SAL)2 (DL-A2 pr)]-Leu-Arg-Pro-D-Ala-NH2 [Example XV]”, the “Binding affinity, Ka1 … of pituitary” value in test [4] came out at 8.676 nM⁻¹. Also, the “Binding affinity, Ka1 … of cancer cells” value in test [5] came to 4.418 nM⁻¹. For the same compound, the “% Blockade of ovulation” value in the test with 4-day cycling rats (Dose 3 μg/rat) was 20%.
For the compound “Ac-D-Nal(2)-D-Phe(4Cl)-D-Trp-Ser-Arg-D-Mel-Leu-Arg-Pro-D-Ala-NH2 [IIA]”, the Human prostate cancer Ka2 in test [2] (setting [7]) was 0.97 µM⁻¹. In test [3] (setting [7]), this compound returned a Dunning tumor Ka2 of 25.1 µM⁻¹.
As for “[Chlorambucil-D-Leu^2,D-Leu^3,D-Ala^6 ]LHRH (2-10)”, the “activity of Chlorambucil-linked LHRH agonist / antagonist analogue (in words)” value in the test on LHRH was “moderate activities”.
Regarding “[Chlorambucil-D-Phe^1,D-Phe^2,D-Trp^3,6 ]LHRH”, the “activity of Chlorambucil-linked LHRH agonist / antagonist analogue (in words)” value in the test with LHRH was “practically inactive”.
For [D-Lys(Chlorambucil)^6 ] LHRH, in the test on LHRH, the “activity of Chlorambucil-linked LHRH agonist / antagonist analogue (in words)” value was “moderate activities”.
